Results on one substance are retold here after patent publication US7989613B2, “Inhibition of metallo-β-lactamase by RNA” (priority 2005, dated 2011).

“Also recorded” adds a separate entry of the source. Read-outs that look alike come from different tables or passages of the source.

For series [1], the target named is T1, bovine carboxypeptidase A (Bos taurus, UniProt P00730).
T1 construct: purchased Sigma
T1 sequence (P00730 111-419): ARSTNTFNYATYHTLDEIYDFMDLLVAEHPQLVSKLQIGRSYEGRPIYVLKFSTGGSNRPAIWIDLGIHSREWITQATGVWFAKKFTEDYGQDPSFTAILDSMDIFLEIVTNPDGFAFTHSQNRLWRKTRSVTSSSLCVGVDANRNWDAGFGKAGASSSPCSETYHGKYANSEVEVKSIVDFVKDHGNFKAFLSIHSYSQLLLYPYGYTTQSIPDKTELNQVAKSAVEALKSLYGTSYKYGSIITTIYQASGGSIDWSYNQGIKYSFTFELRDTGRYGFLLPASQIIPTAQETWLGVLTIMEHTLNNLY
The experiment in a line: Inhibition of carboxypeptidase A (hydrolysis of hippuryl-L-phenylalanine, 254 nm). The conditions noted are these: 250 nM of the 30-mer (23×IC50), 1 mM hippuryl-L-phenylalanine, 0.05 M Tris-HCl pH 7.5, 0.5 M NaCl. It counts as biochemical. On the procedure: Assay of bovine carboxypeptidase A. The assay of bovine carboxypeptidase A is based on the method of Folk and Schirmer (1963). The rate of hydrolysis of hippuryl-L-phenylalanine is determined by monitoring the increase in absorbance at 254 nm (25° C., pH 7.5). The enzyme was dissolved in 10% lithium chloride to a concentration of 1-3 units per mL. Hippuryl-L-phenylalanine (0.001 M) was dissolved in 0.05 M Tris-HCl, pH 7.5, with 0.5 M sodium chloride. In a 1-cm pathlength cuvette, 1.0 mL of substrate was added and incubated in the spectrophotometer at 25° C. for 3-4 minutes to reach temperature equilibration and to establish blank rate. 50 μL of diluted enzyme was added to record the increase in AbS254.
In addition, the zinc dependent bovine carboxypeptidase A was used to test the specificity of inhibition by this 30-mer. […] The concentration of the substrate (hippuryl-L-phenylalanine) was 1 mM in the buffer (0.05 M Tris-HCl, pH 7.5, with 0.5 M sodium chloride).

The target in series [2] is B. cereus 569/H/9 β-lactamase I (Bacillus cereus, UniProt P00809). The conditions noted are these: 250 nM of the 30-mer (23×IC50); 1.1 mM benzylpenicillin, 50 mM MOPS pH 7.0; listed as 30-mer. As for the experimental part:
The β-lactamase I activity assays used was modified from Davies et al. (1974), which described a general method of β-lactamase I activity assays. Briefly, the enzyme was incubated with 20 mM EDTA (pH 7.0) for 15 min. at room temperature prior to the assay. The enzymatic hydrolysis of 1.1 mM benzylpenicillin in […] MOPS (pH 7.0) and 1 mM EDTA was continuously monitored at 231 nm at 30° C. in a 1-cm pathlength quartz cell in a total volume of 1 mL. One unit of β-lactamase activity was generally defined as the amount of enzyme required to hydrolyze about one μmole of substrate/min. at 30° C. at pH 7.0.
An experiment was performed to test the specificity of inhibition of the 30-mer (Seq ID No.:6). The inhibition of B. cereus 569/H/9 β-lactamase I (Seq ID No.:7) was tested using various concentrations of the 30-mer RNA. The concentration of the substrate (benzylpenicillin) was 1.1 mM in the buffer (50 mM MOPS (pH 7.0)/1 […] EDTA).

Series [3] has as its target B. cereus 5/B/6 metallo-β-lactamase (Bacillus cereus, UniProt P14488). The conditions noted are these: for IC50: […] cephalosporin C; for Ki: steady-state kinetics. As for the experimental part: Assay of the purified B. cereus 5/B/6 metallo-β-lactamase and B. cereus 569/H/9 β-lactamase I. Metallo-β-lactamase activity assays using cephalosporin C as substrate were determined as previously reported (Myers and Shaw, 1989). The cephalosporin C absorbance maximum at 260 nm was monitored as a function of time (Davies et al., 1974). One unit of activity is generally defined as the amount of enzyme required to catalyze the hydrolysis of about 1 μmol of β-lactam substrate (cephalosporin C) per minute at 30° C. at pH 7.0. […] The assays were carried out at 30° C. in a 0.1 cm path length quartz cell and the total assay volume was 250 μL.
Reversible inhibition studies for metallo-β-lactamase. To test for reversible inhibition, metallo-β-lactamase was incubated with various concentrations of the possible inhibitors in 50 mM MOPS buffer, pH 7.0. The enzyme activity remaining was determined (Myers and Shaw, 1989).
Various assays were conducted with the 30-mer RNA in the presence of metallo-β-lactamase to determine its inhibition values (IC50, Ki, and Ki′). The 30-mer RNA was tested for inhibition of β-lactamase I and bovine carboxypeptidase A. The 30-mer RNA was also tested for inhibition of metallo-β-lactamase in the presence of Zn^2+.
30-mer RNA. The IC50 value for the 30-mer RNA was determined by measuring the rate of enzymatic hydrolysis of cephalosporin C with different amounts of the 30-mer RNA.

Chain of B. cereus 5/B/6 metallo-β-lactamase (P14488 29-256, looked up, natural form): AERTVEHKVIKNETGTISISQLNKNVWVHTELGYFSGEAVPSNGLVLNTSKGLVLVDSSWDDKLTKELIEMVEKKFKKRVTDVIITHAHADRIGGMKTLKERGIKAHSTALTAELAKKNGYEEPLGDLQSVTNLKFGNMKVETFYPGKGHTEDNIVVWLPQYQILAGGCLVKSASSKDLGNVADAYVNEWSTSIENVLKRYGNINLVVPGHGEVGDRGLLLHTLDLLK
Chain of B. cereus 569/H/9 β-lactamase I (P00809 28-306): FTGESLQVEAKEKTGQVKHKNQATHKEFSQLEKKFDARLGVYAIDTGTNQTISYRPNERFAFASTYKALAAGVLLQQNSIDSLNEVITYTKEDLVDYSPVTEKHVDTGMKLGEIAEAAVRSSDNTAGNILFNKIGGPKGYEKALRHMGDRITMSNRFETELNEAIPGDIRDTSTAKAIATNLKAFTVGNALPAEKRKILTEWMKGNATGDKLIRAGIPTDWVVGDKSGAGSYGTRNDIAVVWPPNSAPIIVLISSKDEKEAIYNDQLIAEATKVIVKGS

As to “5′-UGGCUGCAGGGUCUGGCCCCCCGUUUGGUG-3′ (UGGCUGCAGGGUCUGGCCCCCCGUUUGGUG; chemistry not given here) [30-mer RNA]”, the results for the “effect on the activity of carboxypeptidase A” value in series [1] and in series [1] (listed as 30-mer) were “lack of inhibition; also recorded: do not show inhibition” and “no effect”, respectively. Also, the “effect on the activity of B. cereus 569/H/9 β-lactamase I” value in series [2] is reported as “no effect”. Besides, the IC50 in series [3] (read-out: IC50 for B. cereus 5/B/6 metallo-β-lactamase in the presence of Zn2+ ions, 50 mM MOPS and 1 mM ZnSO4, pH 7.0) stood at 19.3 µM; in series [3] (read-out: IC50 for B. cereus 5/B/6 metallo-β-lactamase, 50 mM MOPS pH 7.0, no added Zn2+) it was 0.011 µM. Further, the Ki in series [3] (read-out: Ki (dissociation constant for the inhibitor from the enzyme-inhibitor complex), slope replot) is 2 nM; in series [3] (read-out: Ki′ (dissociation constant for the inhibitor from the enzyme-substrate-inhibitor complex), intercept replot), 15 nM. Further, the “IC50 / inhibition of metallo-β-lactamase, range in words” value in series [3] (stated in words) is recorded as “nanomolar range”. For the same substance, the type of inhibition entry in series [3] (steady-state kinetic study, Lineweaver-Burk plot) is reported as “noncompetitive inhibition”.

Usually Ki stands for the equilibrium dissociation constant of an inhibitor or competing ligand from its target.
